Consider 19 molecules from US8921405B2, “Compounds” (Orexo AB, priority 2009, dated 2014).

The target in one test is T1, recombinant human mPGES-1 (Homo sapiens, UniProt O14684).
T1 construct: made in house; host or cells: Rosetta E. coli (membrane/microsome fraction)
T1 sequence (O14684 1-152): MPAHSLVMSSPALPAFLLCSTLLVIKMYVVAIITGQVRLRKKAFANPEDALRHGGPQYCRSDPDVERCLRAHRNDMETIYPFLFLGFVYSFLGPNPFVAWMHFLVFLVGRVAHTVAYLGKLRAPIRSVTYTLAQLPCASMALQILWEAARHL
Nature of the test: mPGES-1 HTRF assay (inhibition of PGE2 formation from PGH2). In kind it is biochemical. As to conditions: HTRF assay. The method, then:
The basis of the assay used is to measure the inhibition of microsomal prostaglandin E2 synthase-1 (mPGES-1) dependent prostaglandin (PG) E2 formation from PGH2 by different compounds. Thus, the formation of PGE2 is used as signal and a lowering of this signal can be interpreted as inhibition of mPGES-1. […] Microsomes from Rosetta E. coli bacteria expressing recombinant human mPGES-1 can be derived as described below: Inoculate 5 ml LB with Amp and Chloro with bacteria from freeze culture. Incubate over night at 37° C. with 200 rpm. Thereafter, inoculate 500-800 ml LB containing Amp and Chloro with the 5 ml on culture and grow to OD640 of 0.6-0.8. Chill the culture to +4° C. before induction. Induce the culture with IPTG at a final concentration of 400 μM. Express the protein at room temp 18-23° C. with 200 rpm shaking over night. The following steps can be performed on the following day: • 1. Spin down the cells in 250 ml centrifuge flasks for 15 min at 7000 rpm • 2. Dissolve the pellet from 250 ml culture in 12.5 ml homogenization buffer • 3. Disintegrate the cells by sonication, 4×10 seconds at 35% amplitude • 4. Add 2.5 ml MgCl2 (100 mM) and DNase 12.5 μl (0.8 mg/ml) and incubate on ice for 30 min • 5. Spin down the bacteria debris and save the supernatant, 7000 rpm for 15 min • 6. Isolate the protein containing membranes in the supernatant by ultracentrifugation 45000×g for 1 hour. • 7. Discard the supernatant and dissolve the pellet in 20 mM KPi buffer and aliquot the enzyme and store aliquots at −80° C. Before each experiment is performed an aliquot of the enzyme is thawed and it can then be dissolved in 0.1 M KPi pH 7.4 buffer containing 2.5 mM GSH. 50 μl of this enzyme solution is subsequently dispensed in a 384-well plate at room temperature. 0.5 μl of the inhibitor dissolved in DMSO is thereafter added to each well and incubated for 25 minutes at room temperature. Subsequently, 2 μl of PGH2 dissolved in an appropriate solvent is added to each well and after one minute at room temperature, the acidified stop solution containing FeCl2 is added. 4 μl of the total volume is transferred to a separate plate and diluted 750-fold in two separate steps before quantification of PGE2. In order to quantitate the amount of PGE2 that has been formed, a homogenous time resolved fluorescent (HTRF) detection of PGE2 can be performed by the use of a commercially available kit from CisBio essentially according to the manufacturer's protocol. […] The sealing film is thereafter removed from the NC wells. • 5 μl Eu3+-cryptate labeled anti-PGE2 can now be added to rows 1 to 24 by using a Multidrop. • The plate can now be covered with sealing film. • The plate can now be centrifuge at 1200 rpm for 1 minute and place at 4° C. overnight. After the over night incubation the fluorescence is measured by the use of an appropriate microplate reader. […] The extent of the specific HTRF is measured as a ratio of the emission intensity at 665 nm vs. that at 620 nm. A standard curve using synthetic PGE2 is used to quantify the amount of PGE2 in unknown samples. The degree of inhibition can be calculated as percent inhibition by dividing the amount of PGE2 formed in unknown samples by the amount of PGE2 formed in control samples.
For orientation: TR-FRET usually uses a lanthanide donor and a delayed reading to cut background.
Usually IC50 stands for the midpoint of a concentration-inhibition curve. As to `Cn1c(Nc2cc(CNC(=O)C(C)(C)C)ccc2Cl)nc2cc(C(=O)Nc3ccc(Br)cc3)ccc21` [Example 57, N-(4-Bromophenyl)-2-{2-chloro-5-[(tert.butylcarbonylamino)methyl]-phenylamino}-1-methylbenzimidazole-5-carboxamide], the IC50 worked out at 1 nM.
Still for that read-out and setting: in the case of `Cn1c(Nc2cc(CNC(=O)C3(C(F)(F)F)CC3)ccc2Cl)nc2cc(C(=O)Nc3ccc(Br)cc3)c(OCC(F)F)cc21` [Example 59, N-(4-Bromo-phenyl)-2-(2-chloro-5-{[(1-trifluoromethyl-cyclopropanecarbonyl)-amino]-methyl}-phenylamino)-6-(2,2-difluoro-ethoxy)-1-methyl-1H-benzimidazole-5-carboxylic acid amide] it was 2 nM; in that of `Cn1c(Nc2cc(CNC(=O)C3(C(F)(F)F)CC3)ccc2Cl)nc2cc(C(=O)NCC3CC3)c(OCC(F)F)cc21` [Example 60, N-(Cyclopropylmethyl)-2-(2-chloro-5-{[(1-trifluoromethyl-cyclopropanecarbonyl)-amino]-methyl}-phenylamino)-6-(2,2-difluoro-ethoxy)-1-methyl-1H-benzimidazole-5-carboxylic acid amide], 1 nM; in that of `Cn1c(Nc2cc(CNC(=O)C3(C(F)(F)F)CC3)ccc2Cl)nc2cc(C(=O)NCCCC(F)(F)F)c(OCC(F)F)cc21` [Example 61, N-(4,4,4-Trifluorobutyl)-2-(2-chloro-5-{[(1-trifluoromethyl-cyclopropanecarbonyl)-amino]-methyl}-phenylamino)-6-(2,2-difluoro-ethoxy)-1-methyl-1H-benzimidazole-5-carboxylic acid amide], 1 nM.
Same read-out and setting: in the case of `Cn1c(Nc2cc(CNC(=O)C3(C(F)(F)F)CC3)ccc2Cl)nc2cc(C(=O)NC3CCC(F)(F)CC3)c(OCC(F)F)cc21` [Example 62, N-(4,4-Difluorocyclohexyl)-2-(2-chloro-5-{[(1-trifluoromethyl-cyclopropanecarbonyl)-amino]-methyl}-phenylamino)-6-(2,2-difluoro-ethoxy)-1-methyl-1H-benzimidazole-5-carboxylic acid amide] it was 1 nM; in that of `COc1cc2c(cc1C(=O)Nc1ccc(Br)cc1)nc(Nc1cc(CNC(=O)C3(C(F)(F)F)CC3)ccc1Cl)n2C` [Example 63, N-(4-Bromo-phenyl)-2-(2-chloro-5-{[(1-trifluoromethyl-cyclopropanecarbonyl)-amino]-methyl}-phenylamino)-6-methoxy-1-methyl-1H-benzimidazole-5-carboxylic acid amide], 2 nM.
`COc1cc2c(cc1C(=O)NCC1CC1)nc(Nc1cc(CNC(=O)C3(C(F)(F)F)CC3)ccc1Cl)n2C` [Example 64, N-(Cyclopropylmethyl)-2-(2-chloro-5-{[(1-trifluoromethyl-cyclopropanecarbonyl)-amino]-methyl}-phenylamino)-6-methoxy-1-methyl-1H-benzimidazole-5-carboxylic acid amide]: the IC50 came to 2 nM.
Same read-out and setting: then `COc1cc2c(cc1C(N)=O)nc(Nc1cc(CNC(=O)C3(C(F)(F)F)CC3)ccc1Cl)n2C` [Example 65, 2-(2-chloro-5-{[(1-trifluoromethyl-cyclopropanecarbonyl)-amino]-methyl}-phenylamino)-6-methoxy-1-methyl-1H-benzimidazole-5-carboxylic acid amide], with 300 nM; and `Cn1c(Nc2cc(CNC(=O)C3(C(F)(F)F)CC3)ccc2F)nc2cc(C(=O)Nc3ccc(Br)cc3)c(OCC(F)F)cc21` [Example 66, N-(4-Bromo-phenyl)-2-(2-fluoro-5-{[(1-trifluoromethyl-cyclopropanecarbonyl)-amino]-methyl}-phenylamino)-6-(2,2-difluoro-ethoxy)-1-methyl-1H-benzimidazole-5-carboxylic acid amide], with 3 nM; and `O=C(Nc1ccc(Br)cc1)c1cc2nc(Nc3cc(CNC(=O)C4(C(F)(F)F)CC4)ccc3Cl)[nH]c2cc1OCC(F)F` [Example 67, N-(4-Bromo-phenyl)-2-(2-chloro-5-{[(1-trifluoromethyl-cyclopropanecarbonyl)-amino]-methyl}-phenylamino)-6-(2,2-difluoro-ethoxy)-1H-benzimidazole-5-carboxylic acid amide], with 2 nM.
Still for that read-out and setting: in the case of `O=C(NCC1CC1)c1cc2nc(Nc3cc(CNC(=O)C4(C(F)(F)F)CC4)ccc3Cl)[nH]c2cc1OCC(F)F` [Example 68, N-(Cyclopropylmethyl)-2-(2-chloro-5-[{(l-trifluoromethyl-cyclopropanecarbonyl)-amino]-methyl}-phenylamino)-6-(2,2-difluoro-ethoxy)-1H-benzimidazole-5-carboxylic acid amide] it was 3 nM; in that of `COc1cc2[nH]c(Nc3cc(CNC(=O)C4(C(F)(F)F)CC4)ccc3Cl)nc2cc1C(=O)Nc1ccc(Br)cc1` [Example 69, N-(4-Bromo-phenyl)-2-(2-chloro-5-{[(1-trifluoromethyl-cyclopropanecarbonyl)-amino]-methyl}-phenylamino)-6-methoxy-1H-benzimidazole-5-carboxylic acid amide], 1 nM.

The same test, now with this note: compound concentration of 10 μM, HTRF assay; read-out: % inhibition.
In general, inhibition refers to the drop in the measured response relative to a control, in per cent. In the case of `Cn1c(Nc2cc(CNC(=O)C3(C)CCCO3)ccc2Cl)nc2cc(C(=O)Nc3ccc(Br)cc3)ccc21` (stereo not shown) [Example 49, N-(4-Bromophenyl)-2-{2-chloro-5-[(2-methyl-2-tetrahydrofurylamido)-methyl]phenylamino}-1-methylbenzimidazole-5-carboxamide], the inhibition at 10 µM came to 100%.
On the same count and under the same terms, then `Cn1c(Nc2cc(CNC(=O)C3(CN)CC3)ccc2Cl)nc2cc(C(=O)Nc3ccc(Br)cc3)ccc21` [Example 50, 2-(5-{[1-(Aminomethyl)cyclopropylamido]methyl}-2-chlorophenylamino)-N-(4-bromophenyl)-1-methylbenzimidazole-5-carboxamide], with 100%; and `Cn1c(Nc2cc(CNC(=O)C3(C)CCC(F)(F)CC3)ccc2Cl)nc2cc(C(=O)Nc3ccc(Br)cc3)ccc21` [Example 51, N-(4-Bromophenyl)-2-{2-chloro-5-[(4,4-difluoro-1-methylcyclohexyl-amido)methyl]phenylamino}-1-methylbenzimidazole-5-carboxamide], with 94%.
Still for that read-out and setting: in the case of `Cn1c(Nc2cc(CNC(=O)C3(C(F)(F)F)CC3)ccc2Cl)nc2cc(C(=O)NCCOC(C)(C)C)ccc21` [Example 52, N-(2-tert-Butoxyethyl)-2-{2-chloro-5-[(1-trifluoromethylcyclopropyl-amido)methyl]phenylamino}-1-methylbenzimidazole-5-carboxamide] it was 96%.
The same measure, in the same setting: in the case of `Cn1c(Nc2cc(CNC(=O)C3(C(F)(F)F)CC3)ccc2Cl)nc2cc(C(=O)NCCCC(F)(F)F)ccc21` [Example 53, 2-{2-Chloro-5-[(1-trifluoromethylcyclopropylamido)methyl]phenylamino}-1-methyl-N-(4,4,4-trifluorobutyl)benzimidazole-5-carboxamide] it was 100%.
For the molecule `Cn1c(Nc2cc(CNC(=O)C3(C(F)(F)F)CC3)ccc2Cl)nc2cc(C(=O)NC3CCC(F)(F)CC3)ccc21` [Example 54, 2-{2-chloro-5-[(1-trifluoromethylcyclopropylamido)methyl]phenylamino}-N-(4,4-difluorocyclohexyl)-1-methylbenzimidazole-5-carboxamide], the inhibition at 10 µM worked out at 98%.
Still for that read-out and setting: in the case of `CN1CCCC1CCNC(=O)c1ccc2c(c1)nc(Nc1cc(CNC(=O)C3(C(F)(F)F)CC3)ccc1Cl)n2C` (stereo not shown) [Example 55, 2-{2-chloro-5-[(1-trifluoromethylcyclopropylamido)methyl]phenylamino}-1-methyl-N-[2-(1-methyl-2-pyrrolidinyl)ethyl]benzimidazole-5-carboxamide] it was 68%.
